The conditions of series [1]: DCM.
For a further series, the system named is Ba/F3 (D770_N771insSVD). Nature of the series: Cellular growth inhibition assay (CellTiter-Glo), Ba/F3 (D770_N771insSVD). The class given is cell-based. The settings on record: Mus musculus, BaF3, 72 h; 3 days of incubation; read-out: Ba/F3 (D770_N771 insSVD) CC50. The gist of the method:
(§1)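 Ba/F3 cells expressing the EGFR variants were seeded at 4000 cells/well in RPMI with FBS, with 10 ng/ml rhEGF added for the wild-type line, and treated with compound at 0.2% final DMSO. Viability was read by CellTiter-Glo luminescence after 3 days.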
(ATP-based viability assays read luminescence as a measure of living cells.)

In a further series the test system is Ba/F3 (L858R + T790M). Nature of the series: Cellular growth inhibition assay (CellTiter-Glo), Ba/F3 (L858R+T790M). It counts as cell-based. The following applies: Mus musculus, BaF3, 72 h; 3 days of incubation. In short, it runs like this: as §1
For the next series, the target named is EGFR (D770_N771insNPG) (Homo sapiens (Human), UniProt P00533, INS770NPG). Nature of the series: Potency of EGFR (D770_N771insNPG) enzymatic activity inhibition (ADP-Glo luminescence). The class given is biochemical. The settings on record: recombinant EGFR (D770_N771insNPG) 1.5 nM, Poly(Glu, Tyr) substrate, ATP, 1 h at rt. The procedure: Example B. Primary Assay Used to Determine Potency of EGFR (D770_N771insNPG) Enzymatic Activity Inhibition
EGFR (D770_N771insNPG), sequence (P00533 other isoform, or with tags, fused parts or gaps del 1-694/ins NPG behind 770 limits assumed): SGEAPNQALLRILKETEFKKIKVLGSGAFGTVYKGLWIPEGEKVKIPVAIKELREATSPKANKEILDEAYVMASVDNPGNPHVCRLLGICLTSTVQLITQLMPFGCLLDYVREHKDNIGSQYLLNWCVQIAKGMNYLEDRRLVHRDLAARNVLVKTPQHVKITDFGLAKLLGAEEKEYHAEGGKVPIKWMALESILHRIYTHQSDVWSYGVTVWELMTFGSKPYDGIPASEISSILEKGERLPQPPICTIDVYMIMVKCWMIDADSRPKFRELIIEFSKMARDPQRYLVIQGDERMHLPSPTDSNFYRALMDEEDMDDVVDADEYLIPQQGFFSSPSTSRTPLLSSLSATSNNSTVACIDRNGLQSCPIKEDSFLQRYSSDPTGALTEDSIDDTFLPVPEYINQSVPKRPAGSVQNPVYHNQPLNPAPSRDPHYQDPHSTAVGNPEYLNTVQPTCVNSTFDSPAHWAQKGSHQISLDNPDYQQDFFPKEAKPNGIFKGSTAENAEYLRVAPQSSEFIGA
Compounds activity was determined using recombinant EGFR (D770 N771insNPG) protein (SignalChem, #E10-132GG-10) and Poly(Glu, Tyr) substrate (Sigma-Aldrich, #P0275) in an in vitro enzymatic reaction. The enzymatic assay used to determine activity was a Luminescence assay using a Microplate Reader ClarioStar Plus. The enzymatic reaction was carried out in assay buffer (40 mM TRIS-HCl pH 7.4-7.6, 20 mM MgCl2, 2.5 mM MnCl2, 0.05 mM DTT, 0.1 mg/ml BSA). The compounds were dispensed on a 384 well Diamond Well Plate (Axigen, Cat #P-384-120SQ-C—S) using the Biomek FX liquid handling system at 80× solutions of compounds in DMSO. 2× Protein-Substrate mix (final concentration 1.5 nM of EGFR (D770_N771insNPG) and 50 ng/μl of Poly(Glu, Tyr)) was prepared in 1× Assay buffer and 4 µl of mixture per well was added into 384w white Reaction plate with NBS (Coming, Cat #4513). 4 μl of Poly(Glu, Tyr) substrate w/o EGFR in 1× buffer was used for negative control. Plates were centrifuged for 1 min at 200 g. Next step the Compounds were added to Reaction plate using Biomek station via following steps: 1 μl of 80× compounds (in DMSO) were mixed thoroughly with 39 μl of 2× 10 μM ATP in Assay Buffer, then 4 μl of this mixture was added to Reaction plate with 4 μl of Protein-Substrate mix. Plates were centrifuged for 1 min at 200 g and incubated for 1 h at rt. Next 4 μL of ADP-Glo reagent (Promega, ADP-Glo™ Kinase Assay, Cat #V9102) per well was added. Plates were incubated for 30 min at rt. Then 8 μL of Kinase detection reagent (Promega, ADP-Glo™ Kinase Assay, Cat #V9102) per well was added and the Luminescence was measured using Microplate Reader. The % inhibition was then used to calculate the EC50 values. The values of EC50 shown as a letters A-E, where: A<0.001 μM; 0.001 μM<B<0.005 μM; 0.005 μM<C<0.01 μM; 0.01<D<0.05 μM; E>0.05.

In another series the test system is Ba/F3 (EGFRwt). As to the kind of experiment: Cellular growth inhibition assay (CellTiter-Glo), Ba/F3 (EGFRwt). The settings on record: Mus musculus, BaF3, 72 h; Ba/F3 (Wild type) with 10 ng/ml rhEGF, 3 days of incubation. It counts as cell-based. In short, it runs like this: as §1
The next series relates to Ba/F3 (H773_V774insSVD). Nature of the series: Cellular growth inhibition assay (CellTiter-Glo), Ba/F3 (H773_V774insSVD). The settings on record: Mus musculus, BaF3, 72 h; 3 days of incubation; read-out: Ba/F3 (H773_V774 insSVD) CC50. It counts as cell-based.
A further series addresses EGFR (WT) (Homo sapiens (Human), UniProt P00533). As to the kind of experiment: Potency of EGFR enzymatic activity inhibition (WT) (ADP-Glo luminescence). The class given is biochemical. The following applies: recombinant EGFR (WT) 4 nM, Poly(Glu, Tyr) substrate, ATP, 1 h at rt. How it is done:
Example D. Primary Assay Used to Determine Potency of EGFR enzymatic activity Inhibition (WT)
Compound activity was determined using recombinant EGFR protein (SignalChem, #E10-112G-10) and Poly(Glu, Tyr) substrate (Sigma-Aldrich, #P0275) in an in vitro enzymatic reaction. The enzymatic assay used to determine activity was a Luminescence assay using a Microplate Reader ClarioStar Plus. The enzymatic reaction was carried out in assay buffer (40 mM TRIS-HCl pH 7.4-7.6, 20 mM MgCl2, 2.5 mM MnCl2, 0.05 mM DTT, 0.1 mg/ml BSA). The compounds were dispensed on a 384 well Diamond Well Plate (Axigen, Cat #P-384-120SQ-C—S) using the Biomek FX liquid handling system at 80× solutions of compounds in DMSO. 2× Protein-Substrate mix (final concentration 4 nM of EGFR and 50 ng/μl of Poly(Glu, Tyr)) was prepared in 1× Assay buffer and 4 μl of mixture per well was added into 384w white Reaction plate with NBS (Coming, Cat #4513). 4 μl of Poly(Glu, Tyr) substrate w/o EGFR in 1× buffer was used for negative control. Plates were centrifuged for 1 min at 200 g. Next step the Compounds were added to Reaction plate using Biomek station via following steps: 1 μl of 80× compounds (in DMSO) were mixed thoroughly with 39 μl of 2× 10 μM ATP in Assay Buffer, then 4 μl of this mixture was added to Reaction plate with 4 μl of Protein-Substrate mix. Plates were centrifuged for 1 min at 200 g and incubated for 1 h at rt. Next 4 μL of ADP-Glo reagent (Promega, ADP-Glo™ Kinase Assay, Cat #V9102) per well was added. Plates were incubated for 30 min at rt. Then 8 μL of Kinase detection reagent (Promega, ADP-Glo™ Kinase Assay, Cat #V9102) per well was added and the Luminescence was measured using Microplate Reader. The % inhibition was then used to calculate the EC50 values. The results for certain compounds are presented in the Table D. The values of EC50 shown as a letters A-E, where: A<0.001 μM; 0.001 μM<B<0.005 μM; 0.005 μM<C<
A general note: ADP-Glo turns the ADP formed in a reaction into a luminescent signal.

For a further series, the system named is Ba/F3 (A767_dupASV). As to the kind of experiment: Cellular growth inhibition assay (CellTiter-Glo), Ba/F3 (A767_dupASV). It counts as cell-based. The following applies: Mus musculus, BaF3, 72 h; 3 days of incubation; read-out: Ba/F3 (A767_dup ASV) CC50. In short, it runs like this: as §1
The nature of series [2]: Cellular growth inhibition assay (CellTiter-Glo), Ba/F3 (Empty vector). The class given is cell-based. The following applies: mouse, Ba/F3 cells with empty vector; Ba/F3 (Empty vector) with 10 ng/ml rmIL-3, 3 days of incubation. The gist of the method:
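Ba/F3 cells carrying an empty vector were plated in 384-well black clear-bottom plates at 4000 cells per well in 45 μl RPMI containing FBS and 10 ng/ml rmIL-3. Compounds diluted from DMSO stocks were added as 5 μl of 10× solution, giving 0.2% DMSO. After 3 days, CellTiter-Glo was added and luminescence measured.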

Where [3] appears, read: rcm bond, 14-membered ring, Grubbs II (12 mol%), 10.0 mM, 50.0 °C.

This note sets out measurements from patent publication US20250282795A1, “EGFR Inhibitors in cancer treatment” (Celyn Therapeutics, Inc., priority 2022, published 2025).

pEC50: −log10 of the molar value. Where two headings read alike, the source gives them in different places. Where only a bound is given, the exact number is not on record here.

EGFR (WT), sequence (P00533 25-1210): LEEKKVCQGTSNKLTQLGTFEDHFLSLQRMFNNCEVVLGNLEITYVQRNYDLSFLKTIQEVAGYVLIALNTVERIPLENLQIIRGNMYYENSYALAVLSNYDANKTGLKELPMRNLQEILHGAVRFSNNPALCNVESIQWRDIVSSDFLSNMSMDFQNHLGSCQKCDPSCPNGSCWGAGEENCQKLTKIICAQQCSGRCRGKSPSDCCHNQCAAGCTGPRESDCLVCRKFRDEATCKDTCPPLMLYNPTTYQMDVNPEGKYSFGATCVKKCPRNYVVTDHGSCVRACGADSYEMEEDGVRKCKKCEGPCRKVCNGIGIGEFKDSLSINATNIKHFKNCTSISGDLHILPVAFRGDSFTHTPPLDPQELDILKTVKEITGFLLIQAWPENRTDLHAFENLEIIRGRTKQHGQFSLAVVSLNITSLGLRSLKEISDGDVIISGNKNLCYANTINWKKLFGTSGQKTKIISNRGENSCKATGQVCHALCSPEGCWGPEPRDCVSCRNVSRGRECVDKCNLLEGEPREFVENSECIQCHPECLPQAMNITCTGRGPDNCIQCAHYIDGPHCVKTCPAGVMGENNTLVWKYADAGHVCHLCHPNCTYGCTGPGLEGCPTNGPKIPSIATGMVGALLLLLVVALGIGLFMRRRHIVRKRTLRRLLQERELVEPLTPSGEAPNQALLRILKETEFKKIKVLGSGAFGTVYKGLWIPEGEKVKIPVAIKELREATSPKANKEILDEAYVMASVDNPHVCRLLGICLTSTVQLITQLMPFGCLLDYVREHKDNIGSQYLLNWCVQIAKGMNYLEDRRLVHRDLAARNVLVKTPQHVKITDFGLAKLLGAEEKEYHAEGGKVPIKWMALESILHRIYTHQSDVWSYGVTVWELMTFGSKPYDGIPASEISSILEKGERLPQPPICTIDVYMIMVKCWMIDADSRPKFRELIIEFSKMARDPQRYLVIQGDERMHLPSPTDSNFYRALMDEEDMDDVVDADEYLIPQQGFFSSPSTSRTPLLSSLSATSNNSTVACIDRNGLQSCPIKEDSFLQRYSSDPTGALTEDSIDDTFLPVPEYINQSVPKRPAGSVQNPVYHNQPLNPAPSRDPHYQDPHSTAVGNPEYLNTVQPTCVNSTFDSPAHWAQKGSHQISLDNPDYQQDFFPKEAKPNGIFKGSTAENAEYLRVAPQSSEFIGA

`COc1c(F)cccc1Nc1c2[nH]c3c1C(=O)NCC3CC=CCCOc1cnccc1-2` (stereo not drawn): in [1] (from C=CCCOc1cnccc1-c1[nH]c2c(c1Nc1cccc(F)c1OC)C(=O)NCC2CC=C, rcm bond, 12-membered ring, Grubbs II (15 mol%), 10.0 mM, 50.0 °C), the ring closure, isolated yield is 71%.
Take “19-[(3-Fluoro-2-methoxyphenyl)amino]-7,8,10,11,12,12a,13,14-octahydro-6H-7,9-methano-16,18-methenodipyrido[3,4-b:4′,3′-f][1,5,11]oxadiazacyclotetradecin-15(17H)-one”: the ring closure, isolated yield in series [1] (amine bond, 14-membered ring, STAB/DIEA, 190.0 mM, 25.0 °C) was found to be 36%.
Where the note is “amide bond, 18-membered ring, EDCI, DMF, 43.0 mM, 25.0 °C”, “29-(3-Fluoro-2-methoxyanilino)-18,21-dioxa-1,6,10,15,24-pentaazapentacyclo[22.2.2.1^8,110^4,9.0^12,17]nonacosa-8,11(29),12(17),13,15-pentaene-2,7-dione” registered a ring closure, yield after HPLC of 16%.
Take `COc1c(F)cccc1Nc1c2[nH]c3c1C(=O)NCC3C/C=C\COCCOc1cnccc1-2` (stereo not drawn) [Compound 104, (13Z)-23-[(3-fluoro-2-methoxyphenyl)amino]-8,11-dioxa-5,18,22-triazatetracyclo[18.2.10^2,7.0^16,21]tricosa-1(23),2,4,6,13,20-hexaen-19-one]: the CC50 is 10 to 100 nM in the series on Ba/F3 (D770_N771insSVD); 100 to 1000 nM with Ba/F3 (L858R + T790M); 100 to 1000 nM in the series on Ba/F3 (EGFRwt); 100 to 1000 nM in the series on Ba/F3 (H773_V774insSVD); 0.1 to 1 nM in the series with Ba/F3 (A767_dupASV). The pEC50 (commonly the EC50 on a negative log10 scale, so that one unit is a factor of ten) at EGFR (D770_N771insNPG) was at least 9.00; on EGFR (WT), 8.30 to 9.00. Further, the CC50 at 3 days in series [2] is over 10 µM.
On to `COc1c(F)cccc1Nc1c2[nH]c3c1C(=O)NC[C@H]3CCCCOCCOc1cnccc1-2` [Compound 114, (16R)-23-[(3-Fluoro-2-methoxyphenyl)amino]-8,11-dioxa-5,18,22-triazatetracyclo[18.2.1.0^2,7.0^16,21]tricosa-1(23),2,4,6,20-pentaen-19-one], for which the CC50 lay in the range of 10 to 100 nM in the series with Ba/F3 (D770_N771insSVD); 100 to 1000 nM in the series on Ba/F3 (L858R + T790M); 100 to 1000 nM in the series with Ba/F3 (EGFRwt); 100 to 1000 nM in the series with Ba/F3 (H773_V774insSVD); 0.1 to 1 nM in the series on Ba/F3 (A767_dupASV). The pEC50 at EGFR (D770_N771insNPG) and at EGFR (WT) was 8.30 to 9.00 each time. For the same compound, in [2], the CC50 at 3 days is over 10 µM.
As for `COc1c(F)cccc1Nc1c2[nH]c3c1C(=O)NC[C@@H]3CCCCOCCOc1cnccc1-2` [Compound 115], the CC50 in the series on Ba/F3 (D770_N771insSVD) was in the range of 10 to 100 nM; with Ba/F3 (L858R + T790M) it was 100 to 1000 nM; in the series with Ba/F3 (EGFRwt), 100 to 1000 nM; in the series with Ba/F3 (H773_V774insSVD), 10 to 100 nM; in the series with Ba/F3 (A767_dupASV), 0.1 to 1 nM. Moreover, the pEC50 at EGFR (D770_N771insNPG) and at EGFR (WT) was 8.30 to 9.00 throughout. Further, the CC50 at 3 days in series [2] was over 10 µM.
The compound “(13E)-23-[(3-Fluoro-2-methoxyphenyl)amino]-8,11-dioxa-5,18,22-tniazatetracyclo[18.2.1.0^2,7.0^16′2]tricosa-1(23),2,4,6,13,20-hexaen-19-one” gave a ring closure, isolated yield in [1] (setting [3]) of 16%.
The same measure, in the same setting: next, “(13Z)-23-[(3-fluoro-2-methoxyphenyl)amino]-8,11-dioxa-5,18,22-triazatetracyclo[18.2.10^2,7.0^16,21]tricosa-1(23),2,4,6,13,20-hexaen-19-one”: 4%.
Compound “(19E)-28-[(3-Fluoro-2-methoxyphenyl)amino]-3,22-dioxa-6,11,15-triazapentacyclo[21.3.1^10,13.0^4,9.0^12,17]octacosa-1(27),4,6,8,10(28),12,19,23,25-nonaen-14-one” returned a ring closure, yield after HPLC (rcm bond, 16-membered ring, Hoveyda-Grubbs II (10 mol%), DCM, 3.6 mM) of 20%.
